Experiment: Phase 1 Stage 1 clinical pharmacokinetics of SC ZA co-administered with rHuPH20
Format: in vivo, human
Procedure: A pharmacokinetic study of zoledronic acid (ZA) co-administered with rHuPH20 in human subjects was conducted. The primary objective of the study was to determine the bioavailability of zoledronic acid dosed via subcutaneous (SC) co-administration with human recombinant hyaluronidase PH20 (rHuPH20). […] The patients were administered the prescribed dosage formulations as follows: Cohorts 1-5 were administered a single subcutaneous infusion in a dosage volume of 100 ml at a rate of 3 mL/min. […] The dosing solution is administered via needle or catheter into the SC space of the left anterior thigh (midway between the anterior iliac crest and the cephalad border of the patella). For cohorts 1-5, the dosing solutions were administered by a controlled rate infusion pump at approximately 3 mL/minute. […] The dosing solutions were administered by syringe push bolus injection. […] Serum concentration of ZA was determined using a qualified LC-MS-MS assay after derivatization with diazomethane (Zhu, L S et al. (2006) Rapid Commun. […] The assay range was from 2.0 to 400 ng/mL with a lower limit of quantitation (LLOQ) at 2.0 ng/mL. […] Non-compartmental analysis was used for derivation of primary and secondary pharmacokinetic (PK) parameters. […] Summary statistics (mean, standard deviation, and median) were calculated using JMP or Microsoft Excel.

[1] = Subj 1, ZA […] SC, inf 0.554 hr, PH20 23928 U
[2] = Subj 8, ZA […] SC, inf 0.531 hr, PH20 22944 U
[3] = Subj 11, ZA […] SC, inf 0.554 hr, PH20 23928 U
[4] = Subj 16, ZA […] SC, inf 0.553 hr, PH20 23904 U
[5] = Subj 18, ZA […] SC, inf […], PH20 23304 U
[6] = Subj 21, ZA […] SC, inf 0.556 hr, PH20 24000 U
[7] = Subj 25, ZA […] SC, inf 0.549 hr, PH20 23736 U
[8] = Subj 26, ZA […] SC, inf […], PH20 23088 U
[9] = Subj 27, ZA 0.0196 mg/kg SC, inf […], PH20 23976 U
[10] = Subj 29, ZA 0.0339 mg/kg SC, inf 0.556 hr, PH20 24000 U
[11] = Subj 31, ZA […] SC, inf 0.554 hr, PH20 23952 U
[12] = Subj 32, ZA […] SC, inf 0.556 hr, PH20 24000 U
[13] = Subj 37, ZA 0.0791 mg/kg SC, inf 0.556 hr, PH20 24000 U
[14] = Subj 38, ZA 0.0706 mg/kg SC, inf 0.554 hr, PH20 23952 U
[15] = Subj 39, ZA 0.0691 mg/kg SC, inf 0.552 hr, PH20 23856 U
[16] = Subj 41, ZA 0.0653 mg/kg SC, inf […], PH20 12216 U
[17] = Subj 46, ZA 0.0877 mg/kg SC, inf 0.276 hr, PH20 12000 U
[18] = Subj 51, ZA […] SC, inf 0.251 hr, PH20 6024 U

With `O=P(O)(O)C(O)(Cn1ccnc1)P(=O)(O)O` [ZA, 1-hydroxy-2-(1H-imidazol-1-yl)ethylidene-1,1-bisphosphonic acid] the “AUC (0-inf)/D” value [1] was 0.006638 kg·h/mL, the CL [1] was 150.66 mL/h/kg and the Cmax/D [1] was 0.001722 kg/mL. The Vss [1] was 443.18 mL/kg, the Vz [1] was 408.61 mL/kg and the “AUC (0-inf)/D” value [2] was 0.01019 kg·h/mL. The CL [2] was 98.10 mL/h/kg, the Cmax/D [2] was 0.001772 kg/mL and the Vss [2] was 456.21 mL/kg. For the same compound, the Vz [2] was 437.06 mL/kg, the “AUC (0-inf)/D” value [3] was 0.009322 kg·h/mL and the CL [3] was 107.27 mL/h/kg. The Cmax/D [3] was 0.002073 kg/mL, the Vss [3] was 364.47 mL/kg and the Vz [3] was 339.82 mL/kg. The “AUC (0-inf)/D” value [4] was 0.007097 kg·h/mL, the CL [4] was 140.91 mL/h/kg and the Cmax/D [4] was 0.001739 kg/mL. For the same compound, the Vss [4] was 448.93 mL/kg, the Vz [4] was 449.19 mL/kg and the “AUC (0-inf)/D” value [5] was 0.00801 kg·h/mL. For the same compound, the CL [5] was 124.84 mL/h/kg, the Cmax/D [5] was 0.002012 kg/mL and the Vss [5] was 402.54 mL/kg. For the same compound, the Vz [5] was 404.24 mL/kg, the “AUC (0-inf)/D” value [6] was 0.009748 kg·h/mL and the CL [6] was 102.58 mL/h/kg. It also gave a Cmax/D [6] of 0.002152 kg/mL, a Vss [6] of 343.16 mL/kg and a Vz [6] of 336.61 mL/kg. For the same compound, the “AUC (0-inf)/D” value [7] was 0.006861 kg·h/mL, the CL [7] was 145.76 mL/h/kg and the Cmax/D [7] was 0.00176 kg/mL. The Vss [7] was 778.61 mL/kg, the Vz [7] was 1644.23 mL/kg and the “AUC (0-inf)/D” value [8] was 0.01198 kg·h/mL. It also gave a CL [8] of 83.48 mL/h/kg, a Cmax/D [8] of 0.002609 kg/mL and a Vss [8] of 426.21 mL/kg. The Vz [8] was 1017.36 mL/kg, the “AUC (0-inf)/D” value [9] was 0.006142 kg·h/mL and the CL [9] was 162.81 mL/h/kg. The Cmax/D [9] was 0.001276 kg/mL, the Vss [9] was 914.22 mL/kg and the Vz [9] was 1534.48 mL/kg. The “AUC (0-inf)/D” value [10] was 0.007095 kg·h/mL, the CL [10] was 140.94 mL/h/kg and the Cmax/D [10] was 0.001853 kg/mL. For the same compound, the Vss [10] was 664.99 mL/kg, the Vz [10] was 1768.77 mL/kg and the “AUC (0-inf)/D” value [11] was 0.007665 kg·h/mL. It also gave a CL [11] of 130.47 mL/h/kg, a Cmax/D [11] of 0.001699 kg/mL and a Vss [11] of 670.25 mL/kg. For the same compound, the Vz [11] was 1668.54 mL/kg, the “AUC (0-inf)/D” value [12] was 0.008441 kg·h/mL and the CL [12] was 118.47 mL/h/kg. The Cmax/D [12] was 0.001677 kg/mL, the Vss [12] was 1249.30 mL/kg and the Vz [12] was 3764.29 mL/kg. The “AUC (0-inf)/D” value [13] was 0.007838 kg·h/mL, the CL [13] was 127.59 mL/h/kg and the Cmax/D [13] was 0.001656 kg/mL. For the same compound, the Vss [13] was 1395.65 mL/kg, the Vz [13] was 4299.50 mL/kg and the “AUC (0-inf)/D” value [14] was 0.009027 kg·h/mL. The CL [14] was 110.78 mL/h/kg, the Cmax/D [14] was 0.001657 kg/mL and the Vss [14] was 1529.47 mL/kg. For the same compound, the Vz [14] was 3908.22 mL/kg, the “AUC (0-inf)/D” value [15] was 0.01052 kg·h/mL and the CL [15] was 95.04 mL/h/kg. For the same compound, the Cmax/D [15] was 0.002127 kg/mL, the Vss [15] was 1205.01 mL/kg and the Vz [15] was 3571.83 mL/kg. The “AUC (0-inf)/D” value [16] was 0.01128 kg·h/mL, the CL [16] was 88.69 mL/h/kg and the Cmax/D [16] was 0.002159 kg/mL. For the same compound, the Vss [16] was 2371.43 mL/kg, the Vz [16] was 5481.66 mL/kg and the “AUC (0-inf)/D” value [17] was 0.008516 kg·h/mL. It also gave a CL [17] of 117.42 mL/h/kg, a Cmax/D [17] of 0.002429 kg/mL and a Vss [17] of 1096.39 mL/kg. The Vz [17] was 3516.46 mL/kg, the “AUC (0-inf)/D” value [18] was 0.009685 kg·h/mL and the CL [18] was 103.26 mL/h/kg. For the same compound, the Cmax/D [18] was 0.001817 kg/mL.
